Laboratory results from article PMC6237811, “MutT homologue 1 (MTH1) catalyzes the hydrolysis of mutagenic O6-methyl-dGTP” (Nucleic Acids Research, 2018).

Experiments:
Assay type in all cases: biochemical
[1] = biological target: T1, human MTH1 (hMTH1, NUDT1) (Homo sapiens, UniProt P36639); assay: Michaelis-Menten kinetics of hydrolysis by purified MTH1 (PPiLight)
[2] = biological target: T2, mouse MTH1 (mmMTH1, mmNUDT1) (Mus musculus, UniProt P53368); assay: hydrolysis by […] purified enzyme, PPiLight assay, […] substrate
T2 construct: gene Nudt1

[3] = biological target: Arabidopsis thaliana NUDT1 (atNUDT1, atNUDX1) (Arabidopsis thaliana, UniProt Q9CA40); assay: as above
[4] = biological target: T3, rat MTH1 (rnMTH1, rnNUDT1) (Rattus norvegicus, UniProt P53369); assay: as above
T3 construct: gene Nudt1

[5] = biological target: T4, zebrafish MTH1 (zfMTH1) (Danio rerio, UniProt Q7ZWC3); assay: hydrolysis by purified zfMTH1, malachite green and PPiLight assays
T4 construct: gene nudt1

[6] = biological target: T1, human MTH1 (hMTH1, NUDT1); assay: Michaelis-Menten kinetics of hydrolysis by purified MTH1 (PPiLight); HPLC and LC-MS of product

T4 sequence (Q7ZWC3 whole entry): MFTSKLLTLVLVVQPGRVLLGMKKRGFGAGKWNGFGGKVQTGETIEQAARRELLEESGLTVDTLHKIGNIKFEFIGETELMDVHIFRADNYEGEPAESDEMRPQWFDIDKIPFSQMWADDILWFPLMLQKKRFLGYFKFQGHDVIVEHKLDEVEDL
Chain of Arabidopsis thaliana NUDT1 (atNUDT1, atNUDX1) (Q9CA40 2-147): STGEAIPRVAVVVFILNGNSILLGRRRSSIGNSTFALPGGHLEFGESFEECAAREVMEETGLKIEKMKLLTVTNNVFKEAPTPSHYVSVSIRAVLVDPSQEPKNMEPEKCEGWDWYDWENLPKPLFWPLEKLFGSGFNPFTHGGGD

Row | Km [1] [µM] | Km [6] [µM] | SMILES | hydrolysis by 1.5 nM purified enzyme, PPiLight assay, 75 μM substrate [2] | hydrolysis by 1.5 nM purified enzyme, PPiLight assay, 75 μM substrate [3] | hydrolysis by 1.5 nM purified enzyme, PPiLight assay, 75 μM substrate [4] | hydrolysis by purified zfMTH1, malachite green and PPiLight assays [5]
1 | 236 ± 44 | – | COc1nc(N)nc2c1ncn2[C@@H]1O[C@H](COP(=O)(O)OP(=O)(O)OP(=O)(O)O)[C@@H](O)[C@H]1O [O6-methyl-GTP] | – | – | – | –
2 | – | 15.6 ± 0.2 | COc1nc(N)nc2c1ncn2[C@H]1C[C@H](O)[C@@H](COP(=O)(O)OP(=O)(O)OP(=O)(O)O)O1 [O6-methyl-dGTP] | MTH1 homologues from all tested species but E. coli were found to catalyze the hydrolysis of O6-methyl-dGTP | MTH1 homologues from all tested species but E. coli were found to catalyze the hydrolysis of O6-methyl-dGTP | MTH1 homologues from all tested species but E. coli were found to catalyze the hydrolysis of O6-methyl-dGTP | The zfMTH1 enzyme displays considerable activity with O6-methyl-dGTP with a clear preference over dGTP
